Where a name gives a salt, the structure may show the parent alone.

Broadly, the IC50 is the point on the concentration scale where inhibition reaches its midpoint. The low end stands for inhibition by little substance, the high end for a need for much substance. As usually defined, the inhibition is the share of the control response that was lost under treatment.

T1 sequence (P20231 31-275): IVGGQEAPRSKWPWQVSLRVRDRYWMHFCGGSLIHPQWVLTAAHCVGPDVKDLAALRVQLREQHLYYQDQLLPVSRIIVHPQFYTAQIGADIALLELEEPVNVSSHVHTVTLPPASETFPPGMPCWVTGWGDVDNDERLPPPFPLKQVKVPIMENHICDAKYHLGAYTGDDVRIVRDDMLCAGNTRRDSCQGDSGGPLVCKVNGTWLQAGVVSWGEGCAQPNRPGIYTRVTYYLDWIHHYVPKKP

One test concerns the target T1, rh beta tryptase (Homo sapiens, UniProt P20231).
T1 construct: purchased Promega
Nature of the test: Tryptase inhibition test (cleavage of N-p-tosyl-Gly-Pro-Lys-para-nitroaniline, p-nitroaniline measured at 405 nm). Format: biochemical. The settings on record: concentration at which 50% of the tryptase enzyme activity is inhibited; substrate 0.6 mM, pH 7.4, 37° C. How it is done:
The compounds according to the invention are characterised by their tryptase-inhibiting activity. This ability to inhibit tryptase was investigated using the test described below.
The measurement is carried out in Tris HCl buffer (100 mM), which additionally contains calcium (5 mM) and heparin ([…]), at pH 7.4. The standard used is rh beta tryptase which may be obtained commercially from Promega, for example. The substrate used is N-p-tosyl-Gly-Pro-Lys-para-nitroaniline in a concentration of 0.6 mM. The substrate is digested with tryptase to form p-nitroaniline which can be measured at 405 nm. Usually, an incubation period of 5 minutes and an incubation temperature of 37° C. are chosen. The enzyme activity used is 0.91 U/ml. The measurements are carried out in an Autoanalyser (Cobas Bio) made by Hofmann LaRoche. The potential inhibitory substances are used in concentrations of 10 μM in the screening, the inhibition of the tryptase being given in percent. The IC50 is determined at over 70% inhibition (concentration at which 50% of the enzyme activity is inhibited). After 5 minutes' pre-incubation of the potential inhibitory substances, the substrate is added to start the reaction, the formation of p-nitroaniline being taken as a measurement of the enzyme activity after 5 minutes, after testing the linearity.
The data obtained after the above test has been carried out (% inhibition) are assembled in Table 25 for the compounds according to the invention. The IC50 values obtained for the compounds according to the invention can be found in Table 26.
Table 26 contains the IC50 binding values obtained for the compounds according to the invention. These were measured as described above.
With `Cn1c(CCc2ccc(C(=N)N)cc2)nc2cc(C(=O)N(CCCc3ccccc3)Cc3ccc(C(=N)N)cc3)ccc21` [Example 16, 2-[2-(4-Amidinophenyl)-ethyl]-1-methyl-benzimidazol-5-yl-carboxylic Acid-N-(4-amidinobenzyl)-N-(3-phenylpropyl)-amide-dihydrochloride], the 50% inhibitory concentration (IC50) worked out at 154 nM.

As for `Cn1c(CCc2ccc(C(=N)N)cc2)nc2cc(C(=O)N(CCN)C3CCCCC3)ccc21` [Example 37, 2-[2-(4-Amidinophenyl)-ethyl]-1-methyl-benzimidazol-5-yl-carboxylic Acid-[N-(2-amino-ethyl)-N-cyclohexyl-amide]-dihydrochloride], the 50% inhibitory concentration (IC50) was 68 nM. This IC50 lies about 2.3-fold lower than the previous one. Turning to “2-[2-(4-amidinophenyl)ethyl]-1-cyclopropylmethyl-benzimidazol-5-yl-carboxylic acid-N-(2-aminoethyl)-N-(3-pyridyl)-amide [Example 330]”, half-maximal inhibition (IC50) required 503 nM. Against the preceding molecule, the IC50 is about 7.4-fold higher. Still for that read-out and setting: as for “2-[2-(4-amidinophenyl)ethyl]-1-cyclopropylmethyl-benzimidazol-5-yl-carboxylic acid-N-[4-(amino-methyl)-benzyl]-N-(3-pyridyl)-amide [Example 138]”, the figure is 431 nM; as for `Cc1cccc(N2CCN(C(=O)c3ccc4c(c3)nc(CCc3ccc(C(=N)N)cc3)n4C)CC2)c1` [Example 47, 2-[2-(4-Amidinophenyl)-ethyl]-1-methyl-benzimidazol-5-yl-carboxylic Acid-[N′-(3-methylphenyl)-piperazide]], 118 nM.

`CCOc1cccc(N2CCN(C(=O)c3ccc4c(c3)nc(CCc3ccc(C(=N)N)cc3)n4C)CC2)c1` [Example 48, 2-[2-(4-Amidinophenyl)-ethyl]-1-methyl-benzimidazol-5-yl-carboxylic Acid-[N′-(3-ethoxyphenyl)-piperazide]]: inhibition was half-maximal at 147 nM (IC50).

`Cc1ccc(N(CCC(=N)N)C(=O)c2ccc3c(c2)nc(CCc2ccc(C(=N)N)cc2)n3C)cc1` [Example 26, 2-[2-(4-Amidinophenyl)-ethyl]-1-methyl-benzimidazol-5-yl-carboxylic Acid-N-(2-amidinoethyl)-N-(4-methyl-phenyl)-amide-dihydrochloride] displayed an IC50 of 168 nM. This IC50 and that of the molecule before are within 1.5-fold of each other. The same measure, in the same setting: the same measure for `CCOC(=O)CN(Cc1ccc(C(=N)N)cc1)C(=O)c1ccc2c(c1)nc(CCc1ccc(C(=N)N)cc1)n2C` [Example 5, 2-[2-(4-Amidinophenyl)-ethyl]-1-methyl-benzimidazol-5-yl-carboxylic Acid-N-(4-amidino-benzyl)-N-ethoxycarbonylmethyl-amide-dihydrochloride]: 245 nM; for `Cn1c(CCc2ccc(C(=N)N)cc2)nc2cc(C(=O)N(CCN(Cc3ccccc3)Cc3ccccc3)c3ccccc3)ccc21` [Example 19]: 32 nM.

Staying with this test, now noted: inhibition of rh beta tryptase at 10 μM test substance; substrate N-p-tosyl-Gly-Pro-Lys-para-nitroaniline 0.6 mM, pH 7.4, 37° C., 5 minutes.
“2-[2-(4-amidinophenyl)ethyl]-1-{3-[4-(2-methylphenyl)-piperazin-1-yl]-propyl}-benzimidazol-5-yl-carboxylic acid-N-[4-(amino-methyl)-benzyl]-N-(3-pyridyl)-amide [Example 144]”: the “% Inhibition (10 μM)” value was 54%. As to `N=C(N)c1ccc(CCc2nc3cc(C(=O)N(Cc4ccc(CN)cc4)Cc4ccccc4F)ccc3n2CC2CCCO2)cc1` (stereo not drawn) [Example 226, 2-[2-(4-amidinophenyl)ethyl]-1-(tetrahydrofuran-2-yl-methyl)-benzimidazol-5-yl-carboxylic acid-N-[4-(amino-methyl)-benzyl]-N-(2-fluorobenzyl)-amide], testing at 10 µM gave an inhibition of 64%.

Consider “2-[2-(4-amidinophenyl)ethyl]-1-cyclopropylmethyl-benzimidazol-5-yl-carboxylic acid-N-(2-aminoethyl)-N-(3-pyridyl)-amide [Example 330]”, for which the “% Inhibition (10 μM)” value is recorded as 54%. Take `CCCCN(CCCC)CCCn1c(CCc2ccc(C(=N)N)cc2)nc2cc(C(=O)N(CCCC)Cc3ccc(CN)cc3)ccc21` [Example 87, 2-[2-(4-amidinophenyl)ethyl]-1-(3-di-n-butylaminopropyl)-benzimidazol-5-yl-carboxylic acid-N-[4-(amino-methyl)-benzyl]-N-n-butyl-amide]: the inhibition at 10 µM turned out to be 59%. In turn, `CCCCN(CCN)C(=O)c1ccc2c(c1)nc(CCc1ccc(C(=N)N)cc1)n2Cc1cccs1` [Example 291, 2-[2-(4-amidinophenyl)ethyl]-1-(2-thiophenyl-methyl)-benzimidazol-5-ylcarboxylic acid-N-(2-aminoethyl)-N-n-butyl-amide] had an inhibition at 10 µM of 75%. For “2-[2-(4-amidinophenyl)ethyl]-1-[3-(benzylcarbonylamino)-propyl]-benzimidazol-5-yl-carboxylic acid-N-[4-(amino-methyl)-benzyl]-N-(2-pyridyl)-amide [Example 120]”, the “% Inhibition (10 μM)” value is 74%. Same read-out and setting: as for “2-[2-(4-amidinophenyl)ethyl]-1-cyclopropylmethyl-benzimidazol-5-yl-carboxylic acid-N-[4-(amino-methyl)-benzyl]-N-(3-pyridyl)-amide [Example 138]”, the figure is 72%.

The molecule `COC(=O)c1ccc(CN(Cc2ccc(CN)cc2)C(=O)c2ccc3c(c2)nc(CCc2ccc(C(=N)N)cc2)n3CCc2ccc(Cl)cc2)cc1` [Example 444, 2-[2-(4-amidinophenyl)ethyl]-1-[2-(4-chlorophenyl)ethyl]-benzimidazol-5-yl-carboxylic acid-N-[4-(amino-methyl)-benzyl]-N-[4-(methoxycarbonyl)-benzyl]-amide] displayed an inhibition at 10 µM of 53%. Still for that read-out and setting: as for `Cc1ccc(Cn2c(CCc3ccc(C(=N)N)cc3)nc3cc(C(=O)N(Cc4ccc(CN)cc4)Cc4ccc5ccccc5c4)ccc32)cc1` [Example 237, 2-[2-(4-amidinophenyl)ethyl]-1-(4-methylbenzyl)-benzimidazol-5-yl-carboxylic acid-N-[4-(amino-methyl)-benzyl]-N-(2-naphthylmethyl)-amide], the figure is 52%. Take `N=C(N)c1ccc(CCc2nc3cc(C(=O)N(Cc4ccc(Cl)cc4)Cc4ccc(CN)cc4)ccc3n2CC2CCCO2)cc1` (stereo not drawn) [Example 194, 2-[2-(4-amidinophenyl)ethyl]-1-(tetrahydrofuran-2-yl-methyl)-benzimidazol-5-yl-carboxylic acid-N-[4-(amino-methyl)-benzyl]-N-(4-chlorbenzyl)-amide]: the “% Inhibition (10 μM)” value was 61%. The same measure, in the same setting: the same measure for “2-[2-(4-amidinophenyl)ethyl]-1-(2-thiophenyl-methyl)-benzimidazol-5-yl-carboxylic acid-N-(2-aminoethyl)-N-(2-pyridyl)-amide [Example 323]”: 59%; for `CCCCN(Cc1ccc(CN)cc1)C(=O)c1ccc2c(c1)nc(CCc1ccc(C(=N)N)cc1)n2CCCNC(=O)Cc1ccccc1` [Example 88]: 70%. `N=C(N)c1ccc(CCc2nc3cc(C(=O)N(CCN)Cc4ccc(Cl)cc4)ccc3n2Cc2cccs2)cc1` [Example 387, 2-[2-(4-amidinophenyl)ethyl]-1-(2-thiophenyl-methyl)-benzimidazol-5-yl-carboxylic acid-N-(2-aminoethyl)-N-(4-chlorbenzyl)-amide]: the “% Inhibition (10 μM)” value is given as 55%. Still for that read-out and setting: as for `CCOCCCn1c(CCc2ccc(C(=N)N)cc2)nc2cc(C(=O)N(Cc3ccc(Cl)cc3)Cc3ccc(CN)cc3)ccc21` [Example 182, 2-[2-(4-amidinophenyl)ethyl]-1-(3-ethoxypropyl)-benzimidazol-5-yl-carboxylic acid-N-[4-(amino-methyl)-benzyl]-N-(4-chlorbenzyl)-amide], the figure is 67%. Regarding `CCCCN(CCCC)CCCn1c(CCc2ccc(C(=N)N)cc2)nc2cc(C(=O)N(Cc3ccc(Cl)cc3)Cc3ccc(CN)cc3)ccc21` [Example 183, 2-[2-(4-amidinophenyl)ethyl]-1-(3-di-n-butylaminopropyl)-benzimidazol-5-yl-carboxylic acid-N-[4-(amino-methyl)-benzyl]-N-(4 chlorbenzyl)-amide], the “% Inhibition (10 μM)” value was found to be 56%.

For the origin of these results see US6512000B1, “Aminocarbonyl-substituted benzimidazoles having tryptase-inhibitory activity” (Boehringer Ingelheim Pharma KG, priority 1999, dated 2003).
